In patent publication EP4810040A2, “INHIBITORS OF APOL1 AND METHODS OF USING SAME” (priority 2020, dated 2022):
Where two headings read alike, the source gives them in different places.

Biological target: T1, APOL1 G1 (Homo sapiens, UniProt O14791, I384M/S342G)
T1 sequence (O14791 28-398 S342G/I384M): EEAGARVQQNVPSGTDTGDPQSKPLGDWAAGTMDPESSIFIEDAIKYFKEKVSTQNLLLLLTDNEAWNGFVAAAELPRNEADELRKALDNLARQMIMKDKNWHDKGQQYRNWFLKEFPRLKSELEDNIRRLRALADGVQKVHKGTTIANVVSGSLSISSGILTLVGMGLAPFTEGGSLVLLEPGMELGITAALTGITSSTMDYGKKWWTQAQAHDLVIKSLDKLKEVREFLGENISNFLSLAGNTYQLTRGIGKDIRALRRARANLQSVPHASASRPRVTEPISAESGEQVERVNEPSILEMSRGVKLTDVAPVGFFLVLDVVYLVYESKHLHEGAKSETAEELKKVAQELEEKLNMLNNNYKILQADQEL
Experiment: MultiTox-Fluor Multiplex Cytotoxicity Assay, tet-inducible APOL1 G1 T-REx-HEK293 cells
Type: cell-based
Set-up: expressed in transfected cells; host or cells: T-REx HEK293, clone G1 DC3.25 (pAAVS1-Puro-APOL1 G1)
Settings: for Emax: read-out: Multi-Tox Assay Max Activity (%)
Summary of the method: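 Over 24 h at 37 °C, compounds (10-point 3-fold series from 10 µM, duplicate) were co-incubated with 50 ng/mL tetracycline inducing APOL1 G1 in T-REx-HEK293 cells. Viability/cytotoxicity measured by MultiTox-Fluor as dead-to-live fluorescence ratio, expressed as percent of control between uninduced and induced wells and fitted.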

[1] = HEK293, Multi-Tox Assay, APOL1 variant (G0/G1/G2) of the HEK293 cells not given, read-out: Multi-Tox Assay IC90
[2] = Multi-Tox Assay, APOL1 variant not given

Structure (SMILES) | IC90 [1] [nM] | Multi-Tox Assay Max Activity (%) [2] [%] | IC90 (HEK293, read-out: Multi-Tox Assay IC90 (nM)) [nM] | Emax [%] | Emax [2] [%]
Cc1nn(CCO)cc1[C@@H]1C[C@]2(C[C@H](C)N1)OCCc1cc(Cl)sc12 (racemic) [Compound 158] | > 500 | 90.4 |  |  | 
Cc1nc([C@@H]2C[C@]3(C[C@H](C)N2)OCCc2cc(Cl)sc23)cn1C (racemic) [Compound 159] | > 500 | 92.2 |  |  | 
C[C@H]1C[C@@]2(C[C@@H](c3cnccc3O)N1)OCCc1cc(Cl)sc12 (racemic) [Compound 160] | > 500 | 94.3 |  |  | 
Cc1nc[nH]c1[C@@H]1C[C@]2(C[C@H](C)N1)OCCc1cc(Cl)sc12 (racemic) [Compound 161] | > 500 | 92.4 |  |  | 
CC(C)c1c[nH]c([C@@H]2C[C@]3(C[C@H](C)N2)OCCc2cc(Cl)sc23)n1 (racemic) [Compound 162] | > 500 | 92.0 |  |  | 
C[C@H]1C[C@@]2(C[C@@H](c3cnn4c3OCCC4)N1)OCCc1cc(Cl)sc12 (racemic) [Compound 163] | > 500 | 92.7 |  |  | 
Cc1nccnc1[C@@H]1C[C@]2(C[C@H](C)N1)OCCc1cc(Cl)sc12 (racemic) [Compound 164] | > 500 | 91.7 |  |  | 
C[C@H]1C[C@@]2(C[C@@H](c3ncc(C(F)(F)F)[nH]3)N1)OCCc1cc(Cl)sc12 (racemic) [Compound 165] | > 500 | 92.0 |  |  | 
COc1cccc([C@@H]2C[C@]3(C[C@H](C)N2)OCCc2cc(Cl)sc23)c1O (racemic) [Compound 166] | > 500 | 96.7 |  |  | 
Cc1cccnc1[C@@H]1C[C@]2(C[C@H](C)N1)OCCc1cc(Cl)sc12 (racemic) [Compound 167] | > 500 | 89.7 |  |  | 
C[C@H]1C[C@@]2(C[C@@H](c3cccc4cn[nH]c34)N1)OCCc1cc(Cl)sc12 (racemic) [Compound 168] | > 500 | 89.0 |  |  | 
C[C@H]1C[C@@]2(C[C@@H](c3n[nH]c4ccccc34)N1)OCCc1cc(Cl)sc12 (racemic) [Compound 169] | > 500 | 86.8 |  |  | 
Cc1nc2c([C@@H]3C[C@]4(C[C@H](C)N3)OCCc3cc(Cl)sc34)cccc2o1 (racemic) [Compound 170] | > 500 | 89.7 |  |  | 
C[C@H]1C[C@@]2(C[C@@H](c3ncnn3C)N1)OCCc1cc(Cl)sc12 (racemic) [Compound 171] | > 500 | 71.8 |  |  | 
C[C@H]1C[C@@]2(C[C@@H](c3ncccc3O)N1)OCCc1cc(Cl)sc12 (racemic) [Compound 172] | > 500 | 52.0 |  |  | 
C[C@@H]1C[C@]2(C[C@H](C)N1)OCC(O)c1cc(Cl)sc12 (mixture of isomers) [Compound 205, (2R,6S)-2-chloro-2',6'-dimethyl-spiro[4,5-dihydrothieno[2,3-c]pyran-7,4'-piperidine]-4-ol] |  |  | 50 to 500 | 99.3 | 
Cc1cc2c(s1)C1(CC(C)NC(c3cn(C)nn3)C1)OCC2 (single isomer, unassigned) [Compound 3] | < 50 |  |  |  | 99.7
CCc1cc2c(s1)CCOC21CC(C)NC(c2cn(C)nn2)C1 (single isomer, unassigned) [Compound 4] | < 50 |  |  |  | 99.3
CCc1cc2c(s1)C1(CC(C)NC(c3cn(C)nn3)C1)OCC2 (single isomer, unassigned) [Compound 6] | < 50 |  |  |  | 99.7
CCc1cc2c(s1)C(C)COC21C[C@@H](c2cn(C)nn2)N[C@@H](C)C1 (single isomer, unassigned) [Compound 10] | < 50 | 99.7 |  |  | 
CC1COC2(C[C@@H](c3cn(C)nn3)N[C@@H](C)C2)c2cc(Cl)sc21 (single isomer, unassigned) [Compound 12] | < 50 | 99.3 |  |  | 
